In the test the test system is BDF1 mice, s.c. Lewis lung carcinoma, T/C %. Kind of test: NCI In Vivo Anticancer Drug Screen. Data for tumor model Lewis Lung Carcinoma (subcutaneous) in B6D2F1 (BDF1) mice. In short, it runs like this: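 Transplanted tumors grown in mice; compound vs vehicle dosing; endpoint survival or tumor size; ratio T/C.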
Setting [1] is: endpoint: median survival time, dose: 0.5 mg/kg/injection, schedule: Q01DX009 (ip), vehicle: saline with Tween-80, higher = longer survival.
The mark [2] stands for this setting: endpoint: median survival time, dose: 1.0 mg/kg/injection, schedule: Q01DX009 (ip), vehicle: saline with Tween-80, higher = longer survival.
Where [3] appears, read: endpoint: median survival time, dose: 2.0 mg/kg/injection, schedule: Q01DX009 (ip), vehicle: saline with Tween-80, higher = longer survival.

Values joined by “and” are separate entries in the source; they are usually repeats but may differ in a detail not shown here. Identical values can stand only once. Inconclusive results are not listed.

With `O=NN(CCF)C(=O)NC1CCS(=O)(=O)CC1`, the T/C was 120 % of control (endpoint: median survival time, dose: 9.0 mg/kg/injection, schedule: Q01DX001 (ip), vehicle: other, higher = longer survival); 109 % of control (endpoint: median survival time, dose: 14.0 mg/kg/injection, schedule: Q01DX001 (ip), vehicle: other, higher = longer survival); 121 % of control (endpoint: median survival time, dose: 21.0 mg/kg/injection, schedule: Q01DX001 (ip), vehicle: other, higher = longer survival); 107 % of control (endpoint: median survival time, dose: 32.0 mg/kg/injection, schedule: Q01DX001 (ip), vehicle: other, higher = longer survival); 65 % of control (endpoint: median tumor weight (est.), dose: 11.0 mg/kg/injection, schedule: Q01DX001 (ip), vehicle: other, higher = larger tumour); 65 % of control (endpoint: median tumor weight (est.), dose: 21.0 mg/kg/injection, schedule: Q01DX001 (ip), vehicle: other, higher = larger tumour). The T/C (endpoint: median tumor weight (est.), dose: 32.0 mg/kg/injection, schedule: Q01DX001 (ip), vehicle: other, higher = larger tumour) is 10 % of control.

On to `CC(=O)OC1CC(OC2C(O)CC(OC3C(O)CC(OC4CCC5(C)C(CCC6C5CCC5(C)C(C7=CC(=O)OC7)CCC65O)C4)OC3C)OC2C)OC(C)C1OC1OC(CO)C(O)C(O)C1O` (stereo not drawn), for which the T/C is 55 % of control (endpoint: mean tumor weight, dose: 1.2 mg/kg/injection, schedule: Q01DX011 (ip), vehicle: carboxymethylcellulose (CMC), higher = larger tumour); 60 % of control (endpoint: mean tumor weight, dose: 2.5 mg/kg/injection, schedule: Q01DX011 (ip), vehicle: carboxymethylcellulose (CMC), higher = larger tumour); 32 % of control (endpoint: mean tumor weight, dose: 5.0 mg/kg/injection, schedule: Q01DX011 (ip), vehicle: carboxymethylcellulose (CMC), higher = larger tumour).

As for `CC(C)(C)C(=O)O`, the T/C is, setting by setting: (endpoint: mean tumor weight, dose: 37.0 mg/kg/injection, schedule: Q01DX011 (ip), vehicle: other, higher = larger tumour) 75 % of control; (endpoint: mean tumor weight, dose: 83.0 mg/kg/injection, schedule: Q01DX011 (ip), vehicle: other, higher = larger tumour) 159 % of control; (endpoint: mean tumor weight, dose: 125.0 mg/kg/injection, schedule: Q01DX011 (ip), vehicle: other, higher = larger tumour) 92 % of control.

Regarding `CCN(CC)CCNc1ccc(C)c2sc3ccccc3c(=O)c12`, the T/C by setting is: (endpoint: mean tumor weight, dose: 20.0 mg/kg/injection, schedule: Q01DX011 (ip), vehicle: carboxymethylcellulose (CMC), higher = larger tumour) 62 % of control and 65 % of control; (endpoint: mean tumor weight, dose: 40.0 mg/kg/injection, schedule: Q01DX011 (ip), vehicle: carboxymethylcellulose (CMC), higher = larger tumour) 51 % of control and 59 % of control; (endpoint: mean tumor weight, dose: 80.0 mg/kg/injection, schedule: Q01DX011 (ip), vehicle: carboxymethylcellulose (CMC), higher = larger tumour) 16 % of control.

In the case of `O=C1c2c(O)ccc(O)c2C(=O)c2c(NCCNCCO)ccc(NCCNCCO)c21`, the T/C (endpoint: median survival time, dose: 0.25 mg/kg/injection, schedule: Q01DX009 (ip), vehicle: acid diluted with saline, higher = longer survival) is 88 % of control; the T/C (endpoint: median survival time, dose: 0.5 mg/kg/injection, schedule: Q01DX009 (ip), vehicle: acid diluted with saline, higher = longer survival) is 95 % of control; the T/C under setting [1] was 86 % of control and 106 % of control and 114 % of control; the T/C (endpoint: median survival time, dose: 1.0 mg/kg/injection, schedule: Q01DX009 (ip), vehicle: acid diluted with saline, higher = longer survival) was 102 % of control; the T/C under setting [2] was 104 % of control and 105 % of control and 106 % of control; the T/C (endpoint: median survival time, dose: 1.0 mg/kg/injection, schedule: Q## X004 (ip), vehicle: acid diluted with saline, higher = longer survival) was 89 % of control. The T/C runs as follows: under setting [3], 95 % of control; (endpoint: median survival time, dose: 2.0 mg/kg/injection, schedule: Q## X004 (ip), vehicle: acid diluted with saline, higher = longer survival) 89 % of control; (endpoint: median survival time, dose: 4.0 mg/kg/injection, schedule: Q## X004 (ip), vehicle: acid diluted with saline, higher = longer survival) 101 % of control.

Take `COc1ccc2c3c(c4cc(OC)c(OC)cc4c2c1)C[C@H]1CCCCN1C3`: the T/C is 90 % of control and 100 % of control (endpoint: mean tumor weight, dose: 0.25 mg/kg/injection, schedule: Q01DX011 (ip), vehicle: other, higher = larger tumour); 190 % of control (endpoint: mean tumor weight, dose: 0.5 mg/kg/injection, schedule: Q01DX011 (ip), vehicle: other, higher = larger tumour); 87 % of control (endpoint: mean tumor weight, dose: 0.75 mg/kg/injection, schedule: Q01DX011 (ip), vehicle: other, higher = larger tumour).

`CC[C@]1(O)C[C@H](OC2CC(N(C)C)C(OC3CC(O)C(O)C(C)O3)C(C)O2)c2c(cc3c(c2O)C(=O)c2c(O)ccc(O)c2C3=O)[C@H]1C(=O)OC` (stereo partly drawn): the T/C is 118 % of control (endpoint: median survival time, dose: 0.25 mg/kg/injection, schedule: Q01DX009 (ip), vehicle: saline with Tween-80, higher = longer survival); 110 % of control under setting [1]; 123 % of control under setting [2]; 110 % of control under setting [3].

Take `O=C1c2ccccc2C(=O)c2c(NCCNCCO)ccc(NCCNCCO)c21`: the T/C runs as follows: (endpoint: median survival time, dose: 0.25 mg/kg/injection, schedule: Q01DX009 (ip), vehicle: Klucel (hydroxypropylcellulose) (HPC), higher = longer survival) 120 % of control; (endpoint: median survival time, dose: 0.25 mg/kg/injection, schedule: Q01DX009 (ip), vehicle: water, higher = longer survival) 106 % of control; (endpoint: median survival time, dose: 0.5 mg/kg/injection, schedule: Q01DX009 (ip), vehicle: Klucel (hydroxypropylcellulose) (HPC), higher = longer survival) 123 % of control; under setting [1], 86 % of control; (endpoint: median survival time, dose: 0.5 mg/kg/injection, schedule: Q01DX009 (ip), vehicle: saline, higher = longer survival) 114 % of control; (endpoint: median survival time, dose: 0.5 mg/kg/injection, schedule: Q01DX009 (ip), vehicle: water, higher = longer survival) 109 % of control. The T/C runs as follows: (endpoint: median survival time, dose: 1.0 mg/kg/injection, schedule: Q01DX009 (ip), vehicle: Klucel (hydroxypropylcellulose) (HPC), higher = longer survival) 101 % of control; under setting [2], 115 % of control; (endpoint: median survival time, dose: 1.0 mg/kg/injection, schedule: Q01DX009 (ip), vehicle: saline, higher = longer survival) 92 % of control and 94 % of control and 108 % of control; (endpoint: median survival time, dose: 1.0 mg/kg/injection, schedule: Q01DX009 (ip), vehicle: water, higher = longer survival) 89 % of control; (endpoint: median survival time, dose: 2.0 mg/kg/injection, schedule: Q01DX009 (ip), vehicle: Klucel (hydroxypropylcellulose) (HPC), higher = longer survival) 89 % of control; (endpoint: median survival time, dose: 2.0 mg/kg/injection, schedule: Q01DX009 (ip), vehicle: acid diluted with saline, higher = longer survival) 89 % of control. Moreover, the T/C is 95 % of control under setting [3]; 102 % of control (endpoint: median survival time, dose: 2.0 mg/kg/injection, schedule: Q01DX009 (ip), vehicle: saline, higher = longer survival); 96 % of control and 115 % of control (endpoint: median survival time, dose: 2.0 mg/kg/injection, schedule: Q01DX009 (ip), vehicle: water, higher = longer survival); 95 % of control (endpoint: median survival time, dose: 4.0 mg/kg/injection, schedule: Q01DX009 (ip), vehicle: acid diluted with saline, higher = longer survival); 106 % of control (endpoint: median survival time, dose: 4.0 mg/kg/injection, schedule: Q01DX009 (ip), vehicle: other, higher = longer survival); 91 % of control (endpoint: median survival time, dose: 4.0 mg/kg/injection, schedule: Q01DX009 (ip), vehicle: saline, higher = longer survival). In addition, the T/C (endpoint: median survival time, dose: 4.0 mg/kg/injection, schedule: Q01DX009 (ip), vehicle: water, higher = longer survival) was 88 % of control and 105 % of control; the T/C (endpoint: median survival time, dose: 8.0 mg/kg/injection, schedule: Q01DX009 (ip), vehicle: Klucel (hydroxypropylcellulose) (HPC), higher = longer survival) was 109 % of control and 120 % of control; the T/C (endpoint: median survival time, dose: 8.0 mg/kg/injection, schedule: Q01DX009 (ip), vehicle: acid diluted with saline, higher = longer survival) was 90 % of control; the T/C (endpoint: median survival time, dose: 8.0 mg/kg/injection, schedule: Q01DX009 (ip), vehicle: other, higher = longer survival) is 103 % of control; the T/C (endpoint: median survival time, dose: 8.0 mg/kg/injection, schedule: Q01DX009 (ip), vehicle: saline, higher = longer survival) is 95 % of control; the T/C (endpoint: median survival time, dose: 8.0 mg/kg/injection, schedule: Q01DX009 (ip), vehicle: water, higher = longer survival) is 88 % of control. Further, the T/C was 97 % of control (endpoint: median survival time, dose: 10.0 mg/kg/injection, schedule: Q## X004 (ip), vehicle: saline, higher = longer survival); 107 % of control (endpoint: median survival time, dose: 16.0 mg/kg/injection, schedule: Q01DX009 (ip), vehicle: Klucel (hydroxypropylcellulose) (HPC), higher = longer survival); 100 % of control (endpoint: median survival time, dose: 16.0 mg/kg/injection, schedule: Q01DX009 (ip), vehicle: acid diluted with saline, higher = longer survival); 99 % of control (endpoint: median survival time, dose: 16.0 mg/kg/injection, schedule: Q01DX009 (ip), vehicle: saline, higher = longer survival); 102 % of control (endpoint: median survival time, dose: 16.0 mg/kg/injection, schedule: Q01DX009 (ip), vehicle: water, higher = longer survival); 93 % of control (endpoint: median survival time, dose: 20.0 mg/kg/injection, schedule: Q## X004 (ip), vehicle: saline, higher = longer survival). The T/C (endpoint: median survival time, dose: 40.0 mg/kg/injection, schedule: Q## X004 (ip), vehicle: saline, higher = longer survival) is 93 % of control.

With `NC(=S)N/N=C/c1nccc2ccccc12`, the T/C was 103 % of control (endpoint: mean tumor weight, dose: 12.5 mg/kg/injection, schedule: Q01DX011 (ip), vehicle: carboxymethylcellulose (CMC), higher = larger tumour); 48 % of control (endpoint: mean tumor weight, dose: 25.0 mg/kg/injection, schedule: Q01DX011 (ip), vehicle: carboxymethylcellulose (CMC), higher = larger tumour); 64 % of control (endpoint: mean tumor weight, dose: 26.0 mg/kg/injection, schedule: Q01DX011 (ip), vehicle: saline, higher = larger tumour); 56 % of control (endpoint: mean tumor weight, dose: 33.5 mg/kg/injection, schedule: Q01DX011 (ip), vehicle: carboxymethylcellulose (CMC), higher = larger tumour); 16 % of control (endpoint: mean tumor weight, dose: 38.0 mg/kg/injection, schedule: Q01DX011 (ip), vehicle: saline, higher = larger tumour); 42 % of control (endpoint: mean tumor weight, dose: 40.0 mg/kg/injection, schedule: Q01DX011 (oral), vehicle: saline, higher = larger tumour). For the same compound, the T/C runs as follows: (endpoint: mean tumor weight, dose: 56.0 mg/kg/injection, schedule: Q01DX011 (ip), vehicle: saline, higher = larger tumour) 3 % of control; (endpoint: median survival time, dose: 9.4 mg/kg/injection, schedule: Q01DX009 (ip), vehicle: saline with Tween-80, higher = longer survival) 124 % of control; (endpoint: median survival time, dose: 18.8 mg/kg/injection, schedule: Q01DX009 (ip), vehicle: saline with Tween-80, higher = longer survival) 98 % of control and 108 % of control; (endpoint: median survival time, dose: 37.5 mg/kg/injection, schedule: Q01DX009 (ip), vehicle: saline with Tween-80, higher = longer survival) 98 % of control.

Source of the values: PubChem BioAssay AID270 (DTP/NCI, 2004).
